These are literature values, as cited in patent publication US12622888B2, “Pharmaceutical composition and application thereof” (priority 2019, dated 2026).

The data set concerns infarct size of the heart. The following applies: prior art CN2011102229806, FIG. 3.

The structures appear in SMILES notation.

With `O=C(/C=C/c1ccc(O)c2c1[C@H](C(=O)O[C@H](Cc1ccc(O)c(O)c1)C(=O)O)[C@@H](c1ccc(O)c(O)c1)O2)O[C@H](Cc1ccc(O)c(O)c1)C(=O)O` [salvianolic acid B], the “rank order of the effect on reducing the infarct size” value is “salvianolic acid B <ginsenoside Rg1<<salvianolic acid B: ginsenoside Rg1=2:5 group”.

Regarding `CC(C)=CCC[C@](C)(O[C@@H]1O[C@H](CO)[C@@H](O)[C@H](O)[C@H]1O)[C@H]1CC[C@]2(C)[C@@H]1[C@H](O)C[C@@H]1[C@@]3(C)CC[C@H](O)C(C)(C)[C@@H]3[C@@H](O[C@@H]3O[C@H](CO)[C@@H](O)[C@H](O)[C@H]3O)C[C@]12C` [ginsenoside Rg1], the “rank order of the effect on reducing the infarct size” value was “salvianolic acid B <ginsenoside Rg1<<salvianolic acid B: ginsenoside Rg1=2:5 group”.
